Results on 20 compounds are retold here after BindingDB's records for doi:10.7270/Q2HQ3XB9 (Nmmlsc, 2008).

In this test the target is T1, Estrogen receptor (Homo sapiens, UniProt P03372).
T1 sequence (P03372 whole entry): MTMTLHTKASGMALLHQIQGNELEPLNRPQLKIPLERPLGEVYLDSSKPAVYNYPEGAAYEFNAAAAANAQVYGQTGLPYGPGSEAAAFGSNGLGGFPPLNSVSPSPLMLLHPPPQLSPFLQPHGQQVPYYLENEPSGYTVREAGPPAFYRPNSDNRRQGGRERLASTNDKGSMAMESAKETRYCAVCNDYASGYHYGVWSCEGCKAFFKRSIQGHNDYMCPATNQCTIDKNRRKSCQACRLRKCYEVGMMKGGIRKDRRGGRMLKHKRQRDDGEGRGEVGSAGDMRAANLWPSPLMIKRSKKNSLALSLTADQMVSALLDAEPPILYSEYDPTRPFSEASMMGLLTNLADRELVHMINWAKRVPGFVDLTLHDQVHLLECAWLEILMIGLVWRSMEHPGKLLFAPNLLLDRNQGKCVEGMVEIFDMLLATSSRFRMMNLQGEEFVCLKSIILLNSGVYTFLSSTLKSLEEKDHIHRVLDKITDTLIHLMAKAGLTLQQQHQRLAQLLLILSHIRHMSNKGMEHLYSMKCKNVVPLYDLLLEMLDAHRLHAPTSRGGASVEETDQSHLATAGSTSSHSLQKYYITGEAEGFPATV
Briefly: fluorescent estrogen displacement from ERalpha – cell-based, Cos7 ERalpha-GFP, flow cytometry, dose response (AID 1223). (In general: In flow cytometry, cells or beads pass a laser one at a time.)

The mark [1] stands for this setting: inactive by the depositor's call.

As usually defined, the EC50 is the midpoint of the concentration-response curve. Low values mean greater potency, high ones weaker potency. For `COc1cccc(NS(=O)(=O)c2ccc3c(c2)C2C=CCC2C(c2ccc(C(=O)O)cc2)N3)c1` (stereo not given), under setting [1], the EC50 came out at 3880 nM. This lies in the single-digit micromolar range.

The compound `COc1ccc(NS(=O)(=O)c2ccc3c(c2)[C@H]2C=CC[C@H]2[C@@H](c2ccc(C(=O)O)cc2)N3)cc1` displayed an EC50 under setting [1] of 3600 nM. The compound `Brc1cc2c(cc1[C@@H]1Nc3ccccc3[C@@H]3C=CC[C@@H]31)OCO2` displayed an EC50 of 782 nM. On the same count and under the same terms, the same measure for `CC(=O)c1ccc2c(c1)C1C=CCC1C(c1cccc([N+](=O)[O-])c1)N2` (stereo not given) [1-[4-(3-nitrophenyl)-3a,4,5,9b-tetrahydro-3H-cyclopenta[c]quinolin-8-yl]ethanone]: > 10000 nM; for `COc1ccccc1N1CCN(C(=O)c2ccc3nc(-c4ccco4)c(-c4ccco4)nc3c2)CC1` [2,3-di-2-furyl-6-{[4-(2-methoxyphenyl)piperazin-1-yl]carbonyl}quinoxaline]: 15.4 nM. The compound `O=C(OCC(=O)N1CCN(C(=O)c2ccco2)CC1)c1cc(-c2ccco2)nc2ccccc12` [2-(2-furanyl)-4-quinolinecarboxylic acid [2-[4-[2-furanyl(oxo)methyl]-1-piperazinyl]-2-oxoethyl] ester] displayed an EC50 under setting [1] of 33.9 nM. That is a double-digit nanomolar value. In the case of `O=C(Nc1cc(C(F)(F)F)ccc1N1CCOCC1)C1Cc2ccccc2CN1C(=O)c1ccco1` (stereo not given) [2-(2-furoyl)-N-[2-morpholino-5-(trifluoromethyl)phenyl]-3,4-dihydro-1H-isoquinoline-3-carboxamide], the EC50 was 367 nM.

Take `Cc1cc(C)cc(OCC(=O)Nc2ccc(N3CCCC3)cc2)c1` [2-(3,5-dimethylphenoxy)-N-(4-pyrrolidin-1-ylphenyl)acetamide]: the EC50 is > 10000 nM. The compound `Cc1nnc(SCC(=O)NC(=O)NCc2ccco2)n1Cc1ccccc1` [2-[(4-benzyl-5-methyl-1,2,4-triazol-3-yl)sulfanyl]-N-(furan-2-ylmethylcarbamoyl)acetamide] had an EC50 under setting [1] of 44.7 nM. The compound `COc1nc(-c2ccc(Cl)cc2)ccc1-c1noc(-c2ccco2)n1` [3-[6-(4-chlorophenyl)-2-methoxy-3-pyridinyl]-5-(2-furanyl)-1,2,4-oxadiazole] registered an EC50 of 48.7 nM. In other words, the double-digit nanomolar range. On the same count and under the same terms, the same measure for `CC(=O)Oc1ccc(C2Nc3c(C(=O)O)ccc([N+](=O)[O-])c3C3C=CCC32)cc1` (stereo not given) [4-(4-acetoxyphenyl)-9-nitro-3a,4,5,9b-tetrahydro-3H-cyclopenta[c]quinoline-6-carboxylic acid]: > 10000 nM; for `CCn1c(=NC(=O)c2ccc(-n3c(O)ccc3O)cc2)sc2c(OC)ccc(OC)c21` [4-[2,5-bis(oxidanylidene)pyrrolidin-1-yl]-N-(3-ethyl-4,7-dimethoxy-1,3-benzothiazol-2-ylidene)benzamide]: > 10000 nM; for `O=C(COC(=O)CCC(=O)c1cccs1)NCc1ccco1` [4-keto-4-(2-thienyl)butyric acid [2-(2-furfurylamino)-2-keto-ethyl] ester]: 4.25 nM. For `Cc1cc(C)c2c(c1)[C@@H]1C=CC[C@@H]1[C@H](c1ccc(S(=O)(=O)N3CCOCC3)cc1)N2` [(3aS,4R,9bR)-6,8-dimethyl-4-[4-(morpholin-4-ylsulfonyl)phenyl]-3a,4,5,9b-tetrahydro-3H-cyclopenta[c]quinoline], the EC50 turned out to be 44.4 nM. Against the preceding compound, the EC50 is about 10-fold higher. On to `O=C(O)c1cc(Cl)c2c(c1)[C@@H]1C=CC[C@@H]1[C@H](c1ccc(S(=O)(=O)N3CCOCC3)cc1)N2` [(3aS,4R,9bR)-6-chloranyl-4-(4-morpholin-4-ylsulfonylphenyl)-3a,4,5,9b-tetrahydro-3H-cyclopenta[c]quinoline-8-carboxylic acid], for which, under setting [1], the EC50 came out at 1010 nM. In turn, `C[C@]12CC[C@@H]3c4ccc(O)cc4[C@@H](O)C[C@H]3[C@@H]1CC[C@@H]2O` [(6S,8R,9S,13S,14S,17S)-13-methyl-6,7,8,9,11,12,14,15,16,17-decahydrocyclopenta[a]phenanthrene-3,6,17-triol] had an EC50 of 36.6 nM. As for `Cc1cc(C(=O)Nc2sc3c(c2C#N)CCC3)no1` [MLS000066325], under setting [1], the midpoint of the response, the EC50, lay at 3.17 nM. Same read-out and setting: the same measure for `Cn1ccnc1SCC(=O)Nc1ccc2nc(SCC(=O)NC3CC3)sc2c1` [MLS000085771]: 24.3 nM. On the same count and under the same terms, the figure for `COc1ccc(CNC(=O)c2cc(-c3cccs3)on2)cc1` [MLS000087249] is 9.68 nM. Take `COc1ccc(C(=O)NN=C(C)c2ccc3c(c2)C2C=CCC2C(c2ccccc2)N3)cc1` (stereo not given) [SMR000176871]: the EC50 was found to be 1430 nM. That is a single-digit micromolar value.
